Entries after “also recorded” stand apart in the source; their conditions may differ.
Columns and labels:
Leishmania major = assay: Experimental infection with Leishmania major in a mouse model (paw thickness); type: in vivo, mice
Excerpt: (§1) The vehicle group consisted of infected animals that received daily injections of saline (0.9% NaCl) during the same period as DHBS. Results are expressed as the mean±the standard deviation of the increases in size of the inoculated paw (right) compared to the non-inoculated paw (left) in mm obtained with a Vernier caliper each week from 0 to 10. ** indicates p<0.01 vs. the vehicle-treated group by a Student t-test. 6 animals were used for each group.
as §1, with “from” for “during”, “moment of the infection, while the control group consisted of non-infected animals.” for “same period as DHBS.”, “9. *” for “10. **”, “p<0.05” for “p<0.01”, “vehicle” for “vehicle-treated”, “7” for “6”
as §1, with “from” for “during”, “third week after the infection.” for “same period as DHBS.”, “9. *” for “10. **”, “p<0.05” for “p<0.01”, “vehicle” for “vehicle-treated”, “7” for “6”
This model is based in the massive inoculation of Leishmania promatigotes in the mouse paw pad. Under these conditions, the parasite induces a progressive inflammation correlated with the multiplication of parasites at the site of inoculation. BALB/c strain female mice that developed severe and uncontrolled injuries were used (Foote S J, Handman E. Brief Funct Genomic Proteomic, 2005). This model has been used in pharmacology to monitor the therapeutic capacity of new leishmanicide compounds and the preventive capacity of potential vaccines against leishmaniasis ((Nelson K G et al. Antimicrob Agents Chemother. 2006).
The animals were inoculated with 5×10^6 of L. major promastigotes (strain Hervás) in 50 μL of PBS into the plantar pad of the right back paw. As negative control of the infection, a group of mice inoculated with 50 μL of PBS was used. The sizes of the lesions were measured every 7 days until the animals were sacrificed (week 9) using a Vernier caliper. The thickness of the right back paw (infected) and the left back paw (uninfected) of all the animals was measured at the base of the fifth toe. The progression of the inflammation is represented as the difference in thickness between the infected and the non-infected paws. […]

[1] = system: uterine tissue implanted in the peritoneal cavity; assay: Rat model of endometriosis (autologous implant, histology); type: in vivo; details: 200 mg/kg/day i.p., two weeks
Excerpt: In these rats, the epithelial layer (a) and the stroma (b) are clearly observed in the endometrium, while longitudinal (c) and circular (d) normal layers of smooth muscle cells are observed in the myometrium adjacent to the peritoneal tissue (e). […] The neovascularization observed in the uterine tissue implanted in control rats (shown with arrows in A) is not present in rats treated with 2,5-dihydroxybenzenesulfonic (DHBS) (C). • D) Magnification of the area marked with a box in C.
Sprague-Dawley rats were anesthetized as described (Fernandez-Tornero C et al. J Biol Chem, 2003). Endometriotic lesions were induced using a known rat model of endometriosis (Vernon M W and Wilson E A. Fertil Steril, 1985). In summary, 2 mm fragments of the cervix were autologously implanted between branches in the mesenteric vascular tree. The rats were treated or not treated (control) daily during two weeks after the surgery with 2,5-dihydroxybenzene sulfonic acid (DHBS) (200 mg/kg; i.p.). Then, the rats were sacrificed and the endometrial ectopic tissue was removed to make its histological examination. […] This example illustrates the therapeutic activity of 2,5-dihydroxybenzene sulfonate (DHBS) in the treatment of endometriosis.

skeletal muscle lesions = assay: Oral treatment of skeletal muscle and tendon lesions in patients (MRI, function); type: in vivo, human
Protocol: A and B are, respectively, front and cross sectional magnetic resonance images (MRI) showing the breaking of the left quadriceps in a patient, immediately before treatment. The presence of a large hematoma, indicated by arrows, may be observed. C and D are, respectively, front and cross sectional MRI showing the quadriceps of the same patient after treatment with 2,5-dihydroxybenzene sulfonic acid (DHBS) (500 mg/day p.o. for two weeks). […] 1 indicates the femur and 2 indicates the femoral vessels.
A is a Magnetic Resonance Image (MRI) of a patient showing the breaking of the right arm brachial biceps one day after the lesion and immediately before the treatment.
Images show the clinical manifestation of the patient referred to in FIG. 12. Before the treatment (1 day after the lesion) a large hematoma (A) and limited flexion (B) and extension (C) of the elbow are observed.
It is a Magnetic Resonance Image (MRI) of a patient showing the breaking of left leg semitendinosus muscle 9 days after the lesion and immediately before starting the treatment.
A is a Magnetic Resonance Image (MRI) of a patient showing the Achilles tendon rupture just before being treated.
The capacity of a 2,5-dihydroxybenzene derivative, the 2,5-dihydroxybenzene sulfonic acid (DHBS) to effectively treat skeletal muscle lesions is shown herein. The efficacy is evident, not only in the images of conventional diagnosis that show the recovery of the muscular damage, but also there is a clear functional recovery of the affected limb.
The first patient's left quadriceps was broken by practicing sports. […] At that moment, the patient starts a daily oral treatment with 500 mg of 2,5-dihydroxybenzene sulfonic acid (DHBS) for two weeks. […] An observation that may be applied to the other cases that support this example.
Other patient has an hematoma and muscular breaking of the brachial biceps, as shown in the magnetic resonance image (MRI) of FIG. 12A. The hematoma can be appreciated externally (FIG. 13A) and the lesion, produced by professional practice (dancing) the day before the consultation, limits the elbow flexion (FIG. 13B) and extension (FIG. 13C).

[2] = brachial biceps breaking, 1500 mg/day p.o., 20 days, one patient
[3] = left quadriceps breaking, 500 mg/day p.o., two weeks, one patient

SMILES: CC(=O)Oc1ccc(OC(C)=O)c(S(=O)(=O)[O-])c1.[K+] [DABS, potassium 2,5-diacetoxybenzene sulfonate]
- size of the lesion (infected vs non-infected paw) (Leishmania major; 200 mg/kg/day i.p. from day 0 to week 9, effect from the third week post-infection): statistically significant reduction in the size of the lesion
- size of the lesion (infected vs non-infected paw) (Leishmania major; 200 mg/kg/day i.p. from third week after inoculation, effect from the eighth week): significantly smaller; also recorded: Reduction in the size of the lesion

SMILES: O=S(=O)(O)c1cc(O)ccc1O [DHBS, 2,5-dihydroxybenzenesulfonic acid]
- histology of the implanted uterine (cervix) tissue, hematoxylin-eosin [1]: athrophy of the cervix tissue implanted; also recorded: Degeneration of the uterine tissue implanted
- neovascularization of the implanted uterine tissue [1]: not present
- semitendinosus muscle lesion on MRI (skeletal muscle lesions; 1500 mg/day p.o., 11 days, started 9 days after lesion, one patient): reduced the muscular lesion; also recorded: remarkable reduction in the size of the lesion
- Achilles tendon lesion on MRI (skeletal muscle lesions; 1500 mg/day p.o., two months, one patient): marked reduction of said lesion; also recorded: remarkable reduction in the size of the lesion
- elbow flexion and extension (skeletal muscle lesions; [2]): recovers the functionality of the elbow flexion and extension; also recorded: have been recovered
- size of the lesion and of the hematoma, brachial biceps (skeletal muscle lesions; [2]): markedly reduces the size of the lesion and of the hematoma; also recorded: remarkable reduction in the size of the lesion; also recorded: the hematoma has disappeared
- quadriceps hematoma on MRI (skeletal muscle lesions; [3]): can no longer be observed; also recorded: the hematoma has disappeared
- quadriceps lesion on MRI (skeletal muscle lesions; [3]): recovery of the lesion in the quadriceps
- period to functional recovery and resolution vs conventional treatments (antiinflammatories) (skeletal muscle lesions; quadriceps breaking, 500 mg/day p.o., two weeks): shorter period
- flexion and extension capacity of the leg (skeletal muscle lesions; quadriceps breaking, 500 mg/day p.o., two weeks, one patient): able to extend the left leg almost completely; also recorded: almost complete flexion (A) and extension (B) capacity
